IC50 data for 17 molecules are collected here from US8354436B2 (4SC Discovery GmbH, priority 2011, dated 2013).

Common to all, as to assay type: cell-based
Settings in all cases: 48 hours

One test has as its system IL-17AA. Put plainly: IL-17AA production by PHA-stimulated human PBMC (human homodimer IL-17A ELISA). The protocol: Analysis of Proliferation of and Cytokine Production by Human PBMC Stimulated with PHA
Peripheral blood mononuclear cells (PBMC) from healthy human donors were purified using Accuspin™ System-Histopaque-1077 (Sigma) according to the protocol recommended by the manufacturer. Purified PBMC were then washed twice with phosphate-buffered saline (PBS) and resuspended in RPMI1640 culture medium supplemented with 10% dialyzed heat inactivated fetal calf serum, 1.5 mM L-glutamine, 100 U penicillin/ml, and […] (all from PAN Biotech, Aidenbach, Germany). For stimulation, PBMC were seeded at 1×10^5 cells/well, activated with 2 μg/ml phytohaemagglutinin (PHA, Sigma) and incubated with the test compounds for 48 hours. IL-17A, IL-17F and INF-γ were then determined in the culture supernatant using a Luminex BioPlex system, following the manufacturer's instructions (BioRad, Munich, Germany). For screening, compounds were used at 10, 1, 0.1 and 0.01 μM. To determine the IC50, compounds were titrated semilogarithmically.
Cytokines were determined in the aforementioned culture supernatant using the following methods: IL-17AA/AF was measured using the Luminex BioPlex system (BioRad, Munich, Germany); IL-17AA using the human homodimer IL-17A ELISA Ready Set Go Kit from eBioscience (Frankfurt, Germany); IL-17FF using the human IL-17F ELI-Pair from Hölzel DiagnosticaGmBH (Köln, Germany); and IFN-γ using the OptEIA human IFN-g ELISA from BD Bioscience (Heidelberg, Germany), all following the manufacturer's instructions.
A general note: In an ELISA, binding on a coated surface is turned into a signal by an enzyme label.

Test [1] deals with PBMC from healthy human donors. As to the kind of experiment: T cell proliferation assay (PHA-stimulated human PBMC, BrdU ELISA). In a few lines: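 Healthy-donor PBMC isolated on Ficoll, seeded at 1×10⁵ cells/well in RPMI with 10% dialysed FCS, stimulated with 2 μg/ml PHA in presence of test compound. Proliferation read after 48 hours by BrdU-incorporation ELISA.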
The test system of another test is IFN-γ. Put plainly: IFN-γ production by PHA-stimulated human PBMC (OptEIA human IFN-g ELISA). A digest of the protocol:
(§1)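 Healthy-donor PBMC (1×10^5 cells/well) activated with 2 μg/ml PHA and incubated with compounds for 48 h. Supernatant IL-17AA/AF read by Luminex BioPlex, IL-17AA, IL-17FF and IFN-γ by ELISA. Screening at 10, 1, 0.1 and 0.01 μM; IC50 from semilogarithmic titrations.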

Another test has as its system IL-17FF. As to the kind of experiment: IL-17FF production by PHA-stimulated human PBMC (human IL-17F ELI-Pair). A digest of the protocol: as §1
The mark [2] stands for this setting: human PBMC, 2 μg/ml PHA, read-out: A: IC50 (IL-17AA).
Setting [3] is: human PBMC, 2 μg/ml PHA, read-out: D: IC50 (Tcell proliferation).
Setting [4] is: human PBMC, 2 μg/ml PHA, read-out: C: IC50 (IFNγ).
The mark [5] stands for this setting: human PBMC, 2 μg/ml PHA, read-out: B: IC50 (IL-17FF).
Where [6] appears, read: PHA-stimulated human PBMC, column A, values without *, read-out: IC50 (IL-17AA).
Where [7] appears, read: PHA-stimulated human PBMC, column D, read-out: IC50 (Tcell proliferation).
The mark [8] stands for this setting: PHA-stimulated human PBMC, column C, read-out: IC50 (IFNγ).
[9] abbreviates: PHA-stimulated human PBMC, column B, read-out: IC50 (IL-17FF).

Read-outs that look alike come from different tables or passages of the source.

Regarding `Fc1cccc(Cl)c1-c1noc(-c2cnn(-c3cccc(Cl)c3)c2C(F)(F)F)c1-c1nccs1` [Example 5, 3-(2-chloro-6-fluorophenyl)-5-(1-(3-chlorophenyl)-5-(trifluoromethyl)-1H-pyrazol-4-yl)-4-(thiazol-2-yl)isoxazole], the IC50 (with IL-17AA (setting [2]); in test [1] (setting [3]); with IFN-γ (setting [4]); with IL-17FF (setting [5])) was less than 0.01 µM throughout.

On to `Cc1nnc(-c2c(-c3c(F)cccc3Cl)noc2-c2cnn(-c3ccccc3F)c2C(F)(F)F)o1` [Example 11, 2-(3-(2-chloro-6-fluorophenyl)-5-(1-(2-fluorophenyl)-5-(trifluoromethyl)-1H-pyrazol-4-yl)isoxazol-4-yl)-5-methyl-1,3,4-oxadiazole], for which the IC50 lay within 1 to 10 µM with IL-17AA (setting [2]), 0.1 to 1 µM in test [1] (setting [3]), 0.01 to 0.1 µM with IFN-γ (setting [4]) and 0.1 to 1 µM in the test on IL-17FF (setting [5]).

For the molecule `Cc1nnc(-c2c(-c3c(F)cccc3Cl)noc2-c2cnn(-c3ccccc3F)c2C(F)(F)F)s1` [Example 12, 3-(2-chloro-6-fluorophenyl)-5-(1-(2-fluorophenyl)-5-(trifluoromethyl)-1H-pyrazol-4-yl)-4-(5-methyl-1,3,4-thiadiazol-2-yl)isoxazole], the IC50 with IL-17AA (setting [2]) was in the range of 0.1 to 1 µM; in test [1] (setting [3]), 0.1 to 1 µM; in the test with IFN-γ (setting [4]), 0.01 to 0.1 µM; with IL-17FF (setting [5]), 0.01 to 0.1 µM.

Consider `Fc1cccc(-n2ncc(-c3onc(-c4c(F)cccc4Cl)c3-c3ccoc3)c2C(F)(F)F)c1` [Example 13, 3-(2-chloro-6-fluorophenyl)-5-(1-(3-fluorophenyl)-5-(trifluoromethyl)-1H-pyrazol-4-yl)-4-(furan-3-yl)isoxazole], for which the IC50 in the test on IL-17AA (setting [2]) was 1 to 10 µM; in test [1] (setting [3]), 1 to 10 µM; in the test with IFN-γ (setting [4]), 1 to 10 µM; in the test with IL-17FF (setting [5]) it was 0.1 to 1 µM.

In the case of `COC(=O)c1csc(-c2c(-c3c(F)cccc3Cl)noc2-c2cnn(-c3cccc(F)c3)c2C(F)(F)F)n1` [Example B-2, methyl 2-(3-(2-chloro-6-fluorophenyl)-5-(1-(3-fluorophenyl)-5-(trifluoromethyl)-1H-pyrazol-4-yl)isoxazol-4-yl)thiazole-4-carboxylate], the IC50 lay within 0.1 to 1 µM with IL-17AA (setting [2]), 0.1 to 1 µM in test [1] (setting [3]), 0.01 to 0.1 µM with IFN-γ (setting [4]) and 0.01 to 0.1 µM in the test with IL-17FF (setting [5]).

For the molecule `Fc1ccccc1-n1ncc(-c2onc(-c3c(F)cccc3Cl)c2-c2ccoc2)c1C(F)(F)F` [Example B-9, 3-(2-chloro-6-fluorophenyl)-5-(1-(2-fluorophenyl)-5-(trifluoromethyl)-1H-pyrazol-4-yl)-4-(furan-3-yl)isoxazole], the IC50 is 0.1 to 1 µM in the test on IL-17AA (setting [2]), 0.1 to 1 µM in test [1] (setting [3]), 0.1 to 1 µM in the test with IFN-γ (setting [4]) and 0.01 to 0.1 µM in the test on IL-17FF (setting [5]).

Turning to `COC(=O)c1c(-c2c(F)cccc2Cl)noc1-c1cnn(-c2cccc(Cl)c2)c1C(F)(F)F` [Example I-11, methyl 3-(2-chloro-6-fluorophenyl)-5-(1-(3-chlorophenyl)-5-(trifluoromethyl)-1H-pyrazol-4-yl)isoxazole-4-carboxylate], the IC50 (with IL-17AA (setting [6]); in test [1] (setting [7]); in the test with IFN-γ (setting [8]); in the test on IL-17FF (setting [9])) was less than 0.01 µM each time.

`COC(=O)c1c(-c2c(F)cccc2Cl)noc1-c1cnn(-c2cccc(C#N)c2)c1C(F)(F)F` [Example I-12, methyl 3-(2-chloro-6-fluorophenyl)-5-(1-(3-cyanophenyl)-5-(trifluoromethyl)-1H-pyrazol-4-yl)isoxazole-4-carboxylate]: the IC50 was in the range of 0.1 to 1 µM with IL-17AA (setting [6]), 0.01 to 0.1 µM in test [1] (setting [7]), 0.01 to 0.1 µM in the test on IFN-γ (setting [8]) and 0.01 to 0.1 µM in the test on IL-17FF (setting [9]).

On to `O=C(NC1CCCCC1)c1c(-c2c(F)cccc2Cl)noc1-c1cnn(-c2ccccc2F)c1C(F)(F)F` [Example I-18, 3-(2-chloro-6-fluorophenyl)-N-cyclohexyl-5-(1-(2-fluorophenyl)-5-(trifluoromethyl)-1H-pyrazol-4-yl)isoxazole-4-carboxamide], for which the IC50 with IL-17AA (setting [6]) was in the range of 1 to 10 µM; in test [1] (setting [7]) it was 1 to 10 µM; in the test with IFN-γ (setting [8]), 0.1 to 1 µM; in the test with IL-17FF (setting [9]) it was 0.1 to 1 µM.

Take `CNC(=O)c1c(-c2c(F)cccc2Cl)noc1-c1cnn(-c2ccccc2F)c1C(F)(F)F` [Example I-19, 3-(2-chloro-6-fluorophenyl)-5-(1-(2-fluorophenyl)-5-(trifluoromethyl)-1H-pyrazol-4-yl)-N-methylisoxazole-4-carboxamide]: the IC50 (in the test with IL-17AA (setting [6]); in test [1] (setting [7]); in the test on IFN-γ (setting [8]); in the test on IL-17FF (setting [9])) was 1 to 10 µM throughout.

With `CNC(=O)c1c(-c2c(F)cccc2Cl)noc1-c1cnn(-c2cccc(Cl)c2)c1C(F)(F)F` [Example I-32, 3-(2-chloro-6-fluorophenyl)-5-(1-(3-chlorophenyl)-5-(trifluoromethyl)-1H-pyrazol-4-yl)-N-methylisoxazole-4-carboxamide], the IC50 in the test on IL-17AA (setting [6]) lay within 0.1 to 1 µM; in test [1] (setting [7]), 0.01 to 0.1 µM; in the test on IFN-γ (setting [8]), 0.1 to 1 µM; in the test on IL-17FF (setting [9]) it was 0.01 to 0.1 µM.

On to `CCOC(=O)c1c(-c2c(F)cccc2Cl)noc1-c1cnn(CCN2CCOCC2)c1C(F)(F)F` [IB-97, ethyl 3-(2-chloro-6-fluorophenyl)-5-(1-(2-morpholinoethyl)-5-(trifluoromethyl)-1H-pyrazol-4-yl)isoxazole-4-carboxylate], for which the values for the IC50 (in test [1] (setting [7]); in the test with IFN-γ (setting [8]); in the test with IL-17FF (setting [9])) were 1 to 10 µM, 0.1 to 1 µM and 0.1 to 1 µM, respectively.

Take `CCOC(=O)c1c(-c2c(F)cccc2Cl)noc1-c1cnn(-c2ccccc2N)c1C(F)(F)F` [IB-98, ethyl 5-(1-(2-aminophenyl)-5-(trifluoromethyl)-1H-pyrazol-4-yl)-3-(2-chloro-6-fluorophenyl)isoxazole-4-carboxylate]: the IC50 (in test [1] (setting [7]); with IFN-γ (setting [8]); in the test on IL-17FF (setting [9])) was 0.01 to 0.1 µM in each case.

With `CCOC(=O)c1c(-c2c(F)cccc2Cl)noc1-c1cnn(-c2ccc(NC(C)=O)cc2)c1C(F)(F)F` [IB-99, ethyl 5-(1-(4-acetamidophenyl)-5-(trifluoromethyl)-1H-pyrazol-4-yl)-3-(2-chloro-6-fluorophenyl)isoxazole-4-carboxylate], the IC50 (in test [1] (setting [7]); in the test with IFN-γ (setting [8]); in the test on IL-17FF (setting [9])) was 1 to 10 µM in each case.

With `CCOC(=O)c1c(-c2c(F)cccc2Cl)noc1-c1cnn(-c2cccc(C(N)=O)c2)c1C(F)(F)F` [IB-100, ethyl 5-(1-(3-carbamoylphenyl)-5-(trifluoromethyl)-1H-pyrazol-4-yl)-3-(2-chloro-6-fluorophenyl)isoxazole-4-carboxylate], the IC50 (in test [1] (setting [7]); with IFN-γ (setting [8]); in the test on IL-17FF (setting [9])) was 1 to 10 µM throughout.

Regarding `NC(=S)c1c(-c2c(F)cccc2Cl)noc1-c1cnn(-c2ccccc2Cl)c1C(F)(F)F` [IB-101, 3-(2-chloro-6-fluorophenyl)-5-(1-(2-chlorophenyl)-5-(trifluoromethyl)-1H-pyrazol-4-yl)isoxazole-4-carbothioamide], the IC50 (in test [1] (setting [7]); in the test on IFN-γ (setting [8]); in the test on IL-17FF (setting [9])) was 1 to 10 µM each time.

Regarding `NC(=S)c1c(-c2c(F)cccc2Cl)noc1-c1cnn(-c2ccccc2F)c1C(F)(F)F` [IB-102, 3-(2-chloro-6-fluorophenyl)-5-(1-(2-fluorophenyl)-5-(trifluoromethyl)-1H-pyrazol-4-yl)isoxazole-4-carbothioamide], the IC50 (in test [1] (setting [7]); in the test with IFN-γ (setting [8]); in the test with IL-17FF (setting [9])) was 0.1 to 1 µM each time.
